{"source": "EPA's ToxValDB 9.5", "system": "Rattus norvegicus", "conditions": "oral", "data": [{"smiles": "CCCCC(CC)COC(=O)C1CC=CCC1C(=O)OCC(CC)CCCC", "note": "(centres undefined) [Bis(2-ethylhexyl) 4-cyclohexene-1,2-dicarboxylate]", "values": [{"measurement": "NOEL", "setting": "subchronic, duration: 42 days, gavage, M, CD(SD), Hematology: WBC decrease, LYMPH decrease, NEUT decrease, Large unstained cell decrease + Absolute Organ Weight: Kidney increase + Relative …", "result": 100, "unit": "mg/kg-day"}]}, {"smiles": "CC1CC(CC2CCC(N)C(C)C2)CCC1N", "note": "(centres undefined) [Bis(4-amino-3-methylcyclohexyl)methane]", "values": [{"measurement": "NOAEL", "setting": "subchronic, duration: 90 days, gavage, M/F, Wistar, Deaths: None (There were dead animals due to the intubation error) + Clinical Observation: Deteriorated general state Discolored body region…", "result": 2.5, "unit": "mg/kg-day"}]}, {"smiles": "[Bi]", "note": "[Bismuth]", "values": [{"measurement": "NOEL", "setting": "short-term, duration: 28 days, gavage, Crj:CD", "result": 1000, "unit": "mg/kg-day"}]}, {"smiles": "COc1cc(-c2ccc(N)c(OC)c2)ccc1N.Cl.Cl", "note": "[C.I. Disperse Black 6 dihydrochloride]", "values": [{"measurement": "NOEL", "setting": "subchronic, duration: 13 weeks, drinking water, M/F, Fischer 344, Body Weight Changes: decrease + Water Consumption: decrease + Hematology: WBC decrease, Lympho decrease, Hct decrease, RBC decrease + Blood …", "result": "< 170", "unit": "mg/kg-day"}]}, {"smiles": "Nc1ccc(N)c2c1C(=O)c1c(N)ccc(N)c1C2=O", "note": "[C.I. Disperse Blue 1]", "values": [{"measurement": "NOEL", "setting": "subchronic, duration: 13 weeks, diet, M/F, Fischer 344, Deaths + Body Weight Changes: decrease + Histopathology: Kidneys-Calculi Urinary bladder a\"Inflammation Urinary bladder a\"Transitional …", "result": 115, "unit": "mg/kg-day"}]}, {"smiles": "[Cl-].[Cs+]", "note": "[Caesium chloride]", "values": [{"measurement": "NOEL", "setting": "subchronic, duration: 90 days, gavage, M/F, Sprague-Dawley, Deaths + Clinical Observation: Irritability Convulsion, preening Locomotor activity increase + Body Weight Changes: decrease + Food …", "result": "< 10", "unit": "mg/kg-day"}]}, {"smiles": "COc1ccc2c3c1O[C@H]1[C@@H](O)C=C[C@H]4[C@@H](C2)N(C)CC[C@@]341", "note": "[Codeine]", "values": [{"measurement": "NOEL", "setting": "subchronic, duration: 13 weeks, diet, F, Fischer 344, Deaths + Clinical Observation: Ruffled fur AlopeciaAbnormal posture + Body Weight Changes: decrease + Hematology: RBC decrease, Plt decrease…", "result": "< 25", "unit": "mg/kg-day"}, {"measurement": "NOEL", "setting": "subchronic, duration: 13 weeks, diet, M/F, Fischer 344, Deaths + Clinical Observation: Ruffled fur AlopeciaAbnormal posture + Body Weight Changes: decrease + Hematology: RBC decrease, Plt decrease…", "result": "< 37.4", "unit": "mg/kg-day"}]}, {"smiles": "O=c1ccc2ccccc2o1", "note": "[Coumarin]", "values": [{"measurement": "NOEL", "setting": "subchronic, duration: 13 weeks, gavage, M/F, Fischer 344, Deaths + Body Weight Changes: decrease + Hematology: RBC increase + Blood Chemistry: Ch E decrease, Cl decrease, TP increase, Alb increase, …", "result": "< 19", "unit": "mg/kg-day"}]}, {"smiles": "CC(C)(O)C1CCCCC1", "note": "[Cyclohexanemethanol, .alpha.,.alpha.-dimethyl-]", "values": [{"measurement": "NOEL", "setting": "short-term, duration: 28 days, gavage, M/F, Clinical Observation: Salivation + Blood Chemistry: GLUC decrease, TP increase, CRN decrease, BIL increase, T-CHO increase + Absolute Organ …", "result": "< 8", "unit": "mg/kg-day"}]}, {"smiles": "O=C1c2ccccc2C(=O)C1c1ccc2ccccc2n1", "note": "[D & C Yellow 11]", "values": [{"measurement": "NOEL", "setting": "subchronic, diet, F, Fischer 344, Body Weight Changes: decrease + Absolute Organ Weight: Liver increase, Lung increase + Relative Organ Weight: Liver increase, Lung increase…", "result": "< 37", "unit": "mg/kg-day"}, {"measurement": "NOEL", "setting": "subchronic, diet, M/F, Fischer 344, Body Weight Changes: decrease + Absolute Organ Weight: Liver increase, Lung increase + Relative Organ Weight: Liver increase, Lung increase…", "result": "< 48", "unit": "mg/kg-day"}]}, {"smiles": "CC(Cl)(Cl)C(=O)[O-].[Na+]", "note": "[Dalapon-sodium]", "values": [{"measurement": "NOEL", "setting": "subchronic, gavage, M, Sprague-Dawley, Blood Chemistry: TP decrease, BUN increase", "result": 300, "unit": "mg/kg-day"}]}, {"smiles": "c1ccc2c(c1)sc1ccccc12", "note": "[Dibenzothiophene]", "values": [{"measurement": "NOEL", "setting": "short-term, duration: 28 days, gavage, M/F, Sprague-Dawley, Clinical Observation: Salivation Soiled perigenital fur + Functional Observational Battery: Locomotor activity decrease + Body Weight …", "result": 3, "unit": "mg/kg-day"}]}, {"smiles": "COc1cc(COC(=O)CCCCCCC(C)C)ccc1O", "note": "[Dihydrocapsiate]", "values": [{"measurement": "NOEL", "setting": "subchronic, gavage, M/F, Crj:CD, Blood Chemistry: ALT increase, Ca increase, Alb increase, TP increase + Absolute Organ Weight: Liver increase + Relative Organ Weight: Liver…", "result": 300, "unit": "mg/kg-day"}]}, {"smiles": "[CH3][Sn]([CH3])([Cl])[Cl]", "note": "[Dimethyltin dichloride]", "values": [{"measurement": "NOAEL", "setting": "subchronic, duration: 90 days, drinking water, M/F, Sprague-Dawley, Deaths + Clinical Observation: Died or sacrificed with poor condition (All remaining animals were sacrificed by week 6) Dehydration …", "result": "< 3.8", "unit": "mg/kg-day"}]}, {"smiles": "CCCCCCC[CH2][Sn]([CH2]CCCCCCC)([S]CC(=O)OCC(CC)CCCC)[S]CC(=O)OCC(CC)CCCC", "note": "(centres undefined) [Dioctyltinbis(2-ethylhexyl mercaptoacetate)]", "values": [{"measurement": "NOAEL", "setting": "subchronic, duration: 90 days, diet, M/F, Wistar, Deaths + Body Weight Changes: Mean body weight decrease + Food Consumption: decrease + Urinalysis: SG decrease, GOT increase + Hematology: …", "result": 0.96, "unit": "mg/kg-day"}]}, {"smiles": "COCC(C)OCC(C)O", "note": "(centres undefined) [Dipropylene glycol monomethyl ether]", "values": [{"measurement": "NOAEL", "setting": "short-term, duration: 28 days, gavage, M/F, Sprague-Dawley, Clinical Observation: Tentative salivation + Relative Organ Weight: Liver increase + Histopathology: Liver-Centrilobular hypertrophy", "result": 200, "unit": "mg/kg-day"}]}, {"smiles": "C=CC(=O)OCC", "note": "[Ethyl acrylate]", "values": [{"measurement": "NOAEL", "setting": "subchronic, duration: 90 days, gavage, M, Fischer 344, Necropsy: Small intestine: Reddening, duodenal mucosa Stomach: Prominent blood vessel, cardiac region", "result": 55, "unit": "mg/kg-day"}]}, {"smiles": "CN1CCN(c2c(F)cc3c(=O)c(C(=O)O)cn(CCF)c3c2F)CC1", "note": "[Fleroxacin]", "values": [{"measurement": "NOEL", "setting": "chronic, duration: 91 days, gavage, M/F, Wistar, Deaths + Clinical Observation: Piloerection + Body Weight Changes: Body weight decrease, Body weight gain decrease + Food Consumption: …", "result": 45, "unit": "mg/kg-day"}]}, {"smiles": "COc1ccc(C[C@@H](C)NC[C@H](O)c2ccc(O)c(NC=O)c2)cc1.COc1ccc(C[C@@H](C)NC[C@H](O)c2ccc(O)c(NC=O)c2)cc1.O=C(O)/C=C/C(=O)O", "note": "[Formoterol hemifumarate]", "values": [{"measurement": "NOEL", "setting": "subchronic, duration: 35 days, gavage, F, Sprague-Dawley, Deaths + Clinical Observation: Tachycardia Tachypnea Salivation + Body Weight Changes: Body weight gain decrease + Blood Chemistry: GLUC …", "result": 0.3, "unit": "mg/kg-day"}, {"measurement": "NOEL", "setting": "subchronic, duration: 35 days, gavage, M, Sprague-Dawley, Deaths + Clinical Observation: Tachycardia Tachypnea Salivation + Body Weight Changes: Body weight gain decrease + Blood Chemistry: GLUC …", "result": 0.03, "unit": "mg/kg-day"}]}, {"smiles": "O=[N+]([O-])c1ccc(NCCO)c(OCCO)c1", "note": "[HC Yellow 4]", "values": [{"measurement": "NOEL", "setting": "subchronic, duration: 13 weeks, diet, M/F, Fischer 344, Body Weight Changes: decrease + Relative Organ Weight: Right kidney increase, Liver increase, Lungs increase, Thymus increase, Testis …", "result": "< 240", "unit": "mg/kg-day"}]}, {"smiles": "CC(C)(C)NN.Cl", "note": "[Hydrazine, (1,1-dimethylethyl)-, monohydrochloride]", "values": [{"measurement": "NOEL", "setting": "subchronic, gavage, M, Sprague-Dawley, Hematology: RBC decrease, Hgb decrease, Hct decrease, MCHC decrease, MCV increase, MCH increase, R RET increase, R + Absolute Organ Weight…", "result": 4, "unit": "mg/kg-day"}]}]}
